Assays:
B. bovis (Texas strain) = experiment: in vitro multiplication inhibition assay (SYBR Green I fluorescence, 96 h), single drugs and two-drug combinations; format: cell-based, Babesia bovis; conditions: for IC50: Babesia bovis, in Bos taurus, B. bovis, 96 h, triplicate, mean ± SD, read-out: IC50 on in vitro culture of parasites; for Selectivity index MDBK: ratio IC50 MDBK to IC50 B. bovis; for Selectivity index NIH/3T3: ratio IC50 NIH/3T3 to IC50 B. bovis
Description: Babesia parasite cultures were maintained using a microaerophilic stationary-phase culture system ([Levy and Ristic, 1980]; [Avarzed et al., 1997]; [Igarashi et al., 1998]). Briefly, bovine Babesia parasites were grown in bovine red blood cells (RBC) in the specific complete medium for each species. The medium for B. bovis (Texas strain) contained GIT medium supplemented with 10% bovine serum, while the medium for B. bigemina (Argentina strain) and B. divergens (Germany strain) was Medium 199 and RPMI 1640 medium, respectively, supplemented with 40% bovine serum ([Rizk et al., 2016]). B. caballi (USDA strain) was grown using equine RBC in GIT medium supplemented with 10% equine serum. T. equi (USDA strain) was grown in equine RBC in M199 medium supplemented with 40% equine serum and hypoxanthine (MP Biomedicals, USA) at a final concentration of 13.6 μg/ml. All of the media included 60 U/ml penicillin G, 60 μg/ml streptomycin, and 0.15 μg/ml amphotericin B (Sigma-Aldrich, USA). The cultures were incubated at 37 °C in a humidified chamber with an atmosphere of 5% CO2, 5% O2, and 90% N2.
The assays were conducted in accordance with the protocol described previously with modification ([Guswanto et al., 2014]). Briefly, the cultures of B. bovis, B. bigemina, B. divergens, B. caballi, and T. equi with a parasitemia of 8%, 3%, 10%, 4%, and 9%, respectively, were harvested and adjusted to 1% parasitemia with fresh RBC before the inhibition assay. The 60 inner wells of a 96-well plate were used in the assay, while the peripheral wells were filled with sterile distillate water to reduce evaporation during incubation. To each well in triplicate, 2.5 μl of infected RBC (5 μl for B. divergens, B. caballi, and T. equi) was added and mixed with a culture medium containing the drug to a total volume of 100 μl. The stock solution of 17-DMAG, DA, and AV was dissolved in a culture medium at various concentrations using two-fold dilution. A culture medium containing DMSO at a final concentration of 0.2% was added to the well with infected RBC as a positive control and to the well with uninfected RBC as a negative control. Furthermore, a drug combination assay was conducted in parallel with the single drug assay at the constant ratio in accordance with the Chou–Talalay method ([Chou, 2006]). In the same plate with a single drug inhibition assay, a two-drug combination (DA+17-DMAG, DA + AV, and 17-DMAG + AV) at concentrations of 0.25 x IC50, 0.5 x IC50, IC50, 2 x IC50, and 4 x IC50 was added to the well containing infected RBC in triplicate. The plate was incubated in a humidified incubator with 5% CO2, 5% O2, and 90% N2. After 96 h, 100 μl of a lysis buffer containing SYBR Green I was added to each well. The plate was wrapped with aluminum foil to avoid direct light exposure and incubated at room temperature. After incubation for 6 h, fluorescence values were measured using a fluorescence spectrophotometer (Fluoroskan Ascent, Thermo Fisher Scientific, USA) with the excitation and emission wavelength at 485 nm and 518 nm, respectively. The fluorescence data were subtracted from the negative control and used to calculate the IC50.
The IC50 of 17-DMAG, DA, and AV was calculated from the percentage of inhibition on the in vitro multiplication of all tested species using non-linear regression (curve fit), available in GraphPad Prism (GraphPad Software Inc., USA). Combination index (CI) values for the drug combination were calculated using CompuSyn software ([Chou, 2006]). Since the chemotherapy effect is preferable at the highest inhibition, the degree of synergism was determined as the weighted average of CI values using a formula ((1 x IC50) + (2 x IC75) + (3 x IC90) + (4 x IC95))/10 ([Chou, 2006]). The differences among groups regarding the parasitemia, hematology profiles, and body weight in the B. microti–infected mouse model were analyzed using Student's t-test, available in GraphPad Prism software.

MDBK cells = experiment: cytotoxicity (drug-exposure viability) assay, CCK-8; format: cell-based, bovine; conditions: for IC50: Bos taurus, MDBK, 24 h exposure, CCK-8, read-out: IC50 on cell line MDBK
Description: Each medium was supplemented with 10% fetal bovine serum, 0.5% penicillin/streptomycin (Gibco, Life Technologies, USA), and an additional 1% glutamine. The medium was changed every 3–4 days and incubated until approximately 80% confluent. The cells were free from mycoplasma contamination after being checked by staining with DAPI (Sigma-Aldrich, USA). The detachment of cells from the culture flask was done using TrypLE™ Express (Gibco, Life Technologies, USA) after washing two times with Dulbecco's phosphate-buffered saline (DPBS). Subsequently, the counting of viable cells was carried out using a Neubauer improved C-Chip (NanoEntek Inc., Korea) after staining with 0.4% trypan blue solution. The drug-exposure viability assay was performed in accordance with the recommendation of the Cell Counting Kit-8 (CCK-8, Dojindo, Japan). Briefly, the assay was carried out using a 96-well plate at 37 °C in a humidified incubator with 5% CO2. One hundred microliters of cells at a density of 5 × 10^4 cells/ml was seeded per well and allowed to attach to the plate for 24 h. […] The exposure of drugs was carried out for 24 h, followed by the addition of 10 μl of CCK-8. The plate was further incubated for 3 h, and the absorbance was measured at 450 nm using a microplate reader.

[1] = effect of 17-DMAG on uninfected mice; format: in vivo, BALB/c mice
Description: (§1) Prior to the subculture of parasites, bovine and equine RBC were incubated with 1 μM of 17-DMAG for 3 h. The RBC were washed three times with PBS and mixed with B. bovis and T. equi parasitized RBC to obtain 1% parasitemia (infected RBC). Subsequently, 100 μl of infected RBC was added to 900 μl of complete medium in a 24-well plate. The untreated erythrocytes were used as a control. The parasitemia was monitored daily via microscopy observation of a Giemsa-stained blood smear for 4 days. Furthermore, the effect of 17-DMAG on mice was evaluated using 8-week-old BALB/c mice. Groups 1 and 2, consisting of three mice each, received intraperitoneal injections of 17-DMAG at a concentration of 15 and 30 mg/kg BW, respectively, for 5 days. One group (three mice) remained as an untreated control.

B. bovis = experiment: effect of 17-DMAG on host erythrocytes: parasite subculture in pretreated bovine RBC; format: cell-based, Babesia bovis; conditions: bovine RBC incubated with 1 μM for 3 h, parasitemia 4 days
Description: as §1

T. equi = experiment: effect of 17-DMAG on host erythrocytes: parasite subculture in pretreated equine RBC; format: cell-based, Theileria equi; conditions: equine RBC incubated with 1 μM for 3 h, parasitemia 4 days
Description: as §1

[2] = introduction, background statement; ref Jilani et al., 2013; cited from earlier work

| Structure (SMILES) | IC50 (B. bovis (Texas strain)) | Selectivity index MDBK (B. bovis (Texas strain)) | Selectivity index NIH/3T3 (B. bovis (Texas strain)) | IC50 (MDBK cells) | mouse body weight ([1]; 15 mg/kg BW intraperitoneal for 5 days) | mouse body weight ([1]; 30 mg/kg BW intraperitoneal for 5 days, day 10 post treatment, not significantly different from control) | multiplication of B. bovis in 17-DMAG-treated RBC versus normal RBC (B. bovis) | multiplication of T. equi in 17-DMAG-treated RBC versus normal RBC (T. equi) | solubility [2] | inhibition on MDBK cell viability (MDBK cells; at a concentration of 40 μM, separate assay) |
| --- | --- | --- | --- | --- | --- | --- | --- | --- | --- | --- |
| CO[C@H]1/C=C\C=C(/C)C(=O)NC2=CC(=O)C(NCCN(C)C)=C(C[C@@H](C)C[C@H](OC)[C@H](O)[C@@H](C)/C=C(\C)[C@@H]1OC(N)=O)C2=O [17-DMAG, 17-dimethylaminoethylamino-17-demethoxygeldanamycin] | 77.6 ± 2.9 nM | 113 | 200 | 8800 ± 2000 nM | did not show any effect | reduced slightly | did not significantly differ | did not significantly differ | water soluble | – |
| O=C1C(O)=C([C@H]2CC[C@H](c3ccc(Cl)cc3)CC2)C(=O)c2ccccc21 [AV, atovaquone] | 39.7 ± 2.4 nM | >1008 | >1008 | > 40000 nM | – | – | – | – | – | did not show any inhibition |
